Test results as given in US7772180B2, “Hepatitis C virus inhibitors” (Bristol-Myers Squibb Company, priority 2006, dated 2010).
Read-outs that look alike come from different tables or passages of the source.

Assays:
[1] = tested on: HCV replicon (strain 1b) in HUH-7 cells; test: HCV replicon FRET assay; assay type: cell-based, Hepatitis C virus; conditions: activity range class
[2] = target: T1, HCV NS3/4A protease complex, BMS strain (UniProt P27958, species not given/STRAIN_BMS); test: FRET peptide assay to monitor HCV NS3/4A proteolytic activity (BMS strain); assay type: biochemical, Hepatitis C virus (genotype 1a); conditions: read-out: HCV Protease (IC50); NS3/4A BMS strain; activity range class
T1 construct: other: NS3/4A BMS strain; activity range class; numeric values, unit not given; said of H77 and J4L6S; fused on or other part: A three-lysine solubilising tail at the C-terminus of NS4A; A His tag is implied by the pET21b vector and Ni-NTA purification; Both are printed for the H77 and J4L6S constructs and apply to BMS by inference
T1 sequence (P27958 1027-1657, change not shown, one chain of several): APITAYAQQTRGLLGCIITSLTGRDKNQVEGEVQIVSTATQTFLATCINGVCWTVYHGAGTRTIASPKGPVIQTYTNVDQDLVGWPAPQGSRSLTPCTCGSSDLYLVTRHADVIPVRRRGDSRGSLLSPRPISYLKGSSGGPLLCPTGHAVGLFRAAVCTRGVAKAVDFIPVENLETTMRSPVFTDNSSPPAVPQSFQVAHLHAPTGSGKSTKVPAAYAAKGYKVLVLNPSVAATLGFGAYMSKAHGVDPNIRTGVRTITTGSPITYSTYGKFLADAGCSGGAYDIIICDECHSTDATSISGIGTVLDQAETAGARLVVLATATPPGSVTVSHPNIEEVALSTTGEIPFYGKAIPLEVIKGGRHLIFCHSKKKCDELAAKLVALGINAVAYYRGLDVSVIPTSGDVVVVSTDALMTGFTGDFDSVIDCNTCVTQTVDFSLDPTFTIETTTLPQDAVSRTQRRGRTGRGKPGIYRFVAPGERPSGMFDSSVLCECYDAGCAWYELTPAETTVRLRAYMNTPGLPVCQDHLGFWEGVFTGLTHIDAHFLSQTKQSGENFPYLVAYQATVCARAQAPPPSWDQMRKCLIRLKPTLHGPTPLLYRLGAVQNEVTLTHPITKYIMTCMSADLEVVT
Method in brief: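 Inhibition measured by real-time fluorescence increase as the protease cleaves RET S1 FRET depsipeptide (2 μM final). Enzyme: >90% pure BMS-strain (1a) NS3/4A at 2-3 nM final, or 300 pM with 50 μg/ml BSA for potent compounds. Buffer: 50 mM HEPES pH 7.5, 0.15 M NaCl, 0.1% Triton, 15% glycerol, 10 mM βME.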

[3] = Hepatitis C virus, Huh-7, read-out: HCV Pro Replicon (EC50), HCV replicon cell assay
[4] = read-out: HCV Pro Replicon (EC50), HCV replicon cell assay

## C=C[C@@H]1C[C@]1(NC(=O)[C@@H]1C[C@@H](Oc2nccc3cc(OC)ccc23)CN1C(=O)[C@H](Nc1nc(C)cc(C)n1)C(C)C)C(=O)NS(=O)(=O)C1CC1 [6 first isomer, N-(4,6-dimethyl-2-pyrimidinyl)-D-valyl-(4R)—N-((1R,2S)-1-((cyclopropylsulfonyl)carbamoyl)-2-vinylcyclopropyl)-4-((6-methoxy-1-isoquinolinyl)oxy)-L-prolinamide]
[1]; [3]
  EC50: > 1 µM
[2]
  IC50: 0.02 to 0.2 µM

## C=C[C@@H]1C[C@]1(NC(=O)[C@@H]1C[C@@H](Oc2nccc3cc(OC)ccc23)CN1C(=O)[C@@H](Nc1nc(C)cc(C)n1)C(C)C)C(=O)NS(=O)(=O)C1CC1 [6 second isomer, N-(4,6-dimethyl-2-pyrimidinyl)-L-valyl-(4R)—N-((1R,2S)-1-((cyclopropylsulfonyl)carbamoyl)-2-vinylcyclopropyl)-4-((6-methoxy-1-isoquinolinyl)oxy)-L-prolinamide]
[1]; [3]
  EC50: 0.1 to 1 µM
[2]
  IC50: 0.0006 to 0.02 µM

## C=C[C@@H]1C[C@]1(NC(=O)[C@@H]1C[C@@H](Oc2nccc3cc(OC)ccc23)CN1C(=O)[C@@H](Nc1ccccn1)C(C)(C)C)C(=O)NS(=O)(=O)C1CC1 [12 first isomer, 3-methyl-N-2-pyridinyl-L-valyl-(4R)—N-((1R,2S)-1-((cyclopropylsulfonyl)carbamoyl)-2-vinylcyclopropyl)-4-((6-methoxy-1-isoquinolinyl)oxy)-L-prolinamide]
[1]; [3]
  EC50: 0.003 to 0.1 µM
[2]
  IC50: 0.0006 to 0.02 µM

## C=C[C@@H]1C[C@]1(NC(=O)[C@@H]1C[C@@H](Oc2nccc3cc(OC)ccc23)CN1C(=O)[C@H](Nc1ccccn1)C(C)(C)C)C(=O)NS(=O)(=O)C1CC1 [12 second isomer, 3-methyl-N-2-pyridinyl-D-valyl-(4R)—N-((1R,2S)-1-((cyclopropylsulfonyl)carbamoyl)-2-vinylcyclopropyl)-4-((6-methoxy-1-isoquinolinyl)oxy)-L-prolinamide]
[1]; [3]
  EC50: 0.1 to 1 µM
[2]
  IC50: 0.02 to 0.2 µM

## C=C[C@@H]1C[C@]1(NC(=O)[C@@H]1C[C@@H](Oc2nccc3cc(OC)ccc23)CN1C(=O)[C@@H](Nc1cccnc1)C(C)(C)C)C(=O)NS(=O)(=O)C1CC1 [13 first isomer, 3-methyl-N-3-pyridinyl-L-valyl-(4R)—N-((1R,2S)-1-((cyclopropylsulfonyl)carbamoyl)-2-vinylcyclopropyl)-4-((6-methoxy-1-isoquinolinyl)oxy)-L-prolinamide]
[1]; [3]
  EC50: 0.003 to 0.1 µM
[2]
  IC50: 0.02 to 0.2 µM

## C=C[C@@H]1C[C@]1(NC(=O)[C@@H]1C[C@@H](Oc2nccc3cc(OC)ccc23)CN1C(=O)[C@@H](Nc1cc(C)cc(C)n1)C(C)(C)C)C(=O)NS(=O)(=O)C1CC1 [14 first isomer, N-(4,6-dimethyl-2-pyridinyl)-3-methyl-L-valyl-(4R)—N-((1R,2S)-1-((cyclopropylsulfonyl)carbamoyl)-2-vinylcyclopropyl)-4-((6-methoxy-1-isoquinolinyl)oxy)-L-prolinamide]
[1]; [3]
  EC50: 0.003 to 0.1 µM
[2]
  IC50: 0.0006 to 0.02 µM

## C=C[C@@H]1C[C@]1(NC(=O)[C@@H]1C[C@@H](Oc2nccc3cc(OC)ccc23)CN1C(=O)[C@H](Nc1cc(C)cc(C)n1)C(C)(C)C)C(=O)NS(=O)(=O)C1CC1 [14 second isomer, N-(4,6-dimethyl-2-pyridinyl)-3-methyl-D-valyl-(4R)—N-((1R,2S)-1-((cyclopropylsulfonyl)carbamoyl)-2-vinylcyclopropyl)-4-((6-methoxy-1-isoquinolinyl)oxy)-L-prolinamide]
[1]; [3]
  EC50: 0.1 to 1 µM
[2]
  IC50: > 0.2 µM

## C=C[C@@H]1C[C@]1(NC(=O)[C@@H]1C[C@@H](Oc2nccc3cc(OC)ccc23)CN1C(=O)[C@@H](Nc1ccccc1)C(C)(C)C)C(=O)NS(=O)(=O)C1CC1 [15 first isomer, 3-methyl-N-phenyl-L-valyl-(4R)—N-((1R,2S)-1-((cyclopropylsulfonyl)carbamoyl)-2-vinylcyclopropyl)-4-((6-methoxy-1-isoquinolinyl)oxy)-L-prolinamide]
[1]; [3]
  EC50: 0.003 to 0.1 µM
[2]
  IC50: 0.0006 to 0.02 µM

## C=C[C@@H]1C[C@]1(NC(=O)[C@@H]1C[C@@H](Oc2ncc(OC)c3ccc(Cl)cc23)CN1C(=O)[C@@H](Nc1ccc(C(=O)OC(C)(C)C)cc1)C(C)(C)C)C(=O)NS(=O)(=O)C1CC1 [204 first isomer, tert-butyl 4-((S)-1-((2S,4R)-4-(7-chloro-4-methoxyisoquinolin-1-yloxy)-2-((1R,2S)-1-(cyclopropylsulfonylcarbamoyl)-2-vinylcyclopropylcarbamoyl)pyrrolidin-1-yl)-3,3-dimethyl-1-oxobutan-2-ylamino)benzoate]
[1]; [4]
  EC50: 0.003 to 0.1 µM
[2]
  IC50: 0.0006 to 0.02 µM

## C=C[C@@H]1C[C@]1(NC(=O)[C@@H]1C[C@@H](Oc2ncc(OC)c3ccc(Cl)cc23)CN1C(=O)C(Nc1ccc(C(=O)OC(C)(C)C)cc1)C(C)(C)C)C(=O)NS(=O)(=O)C1CC1 (stereo partly drawn) [204 second isomer]
[1]; [4]
  EC50: > 1 µM
[2]
  IC50: > 0.2 µM

## C=C[C@@H]1C[C@]1(NC(=O)[C@@H]1C[C@@H](Oc2ncc(OC)c3ccc(Cl)cc23)CN1C(=O)[C@@H](Nc1ccc(C#N)cc1)C(C)(C)C)C(=O)NS(=O)(=O)C1CC1 [205 first isomer, N-(4-cyanophenyl)-3-methyl-L-valyl-(4R)-4-((7-chloro-4-methoxy-1-isoquinolinyl)oxy)-N-((1R,2S)-1-((cyclopropylsulfonyl)carbamoyl)-2-vinylcyclopropyl)-L-prolinamide]
[1]; [3]
  EC50: 0.003 to 0.1 µM
[2]
  IC50: 0.0006 to 0.02 µM

## C=C[C@@H]1C[C@]1(NC(=O)[C@@H]1C[C@@H](Oc2ncc(OC)c3ccc(Cl)cc23)CN1C(=O)[C@H](Nc1ccc(C#N)cc1)C(C)(C)C)C(=O)NS(=O)(=O)C1CC1 [205 second isomer, N-(4-cyanophenyl)-3-methyl-D-valyl-(4R)-4-((7-chloro-4-methoxy-1-isoquinolinyl)oxy)-N-((1R,2S)-1-((cyclopropylsulfonyl)carbamoyl)-2-vinylcyclopropyl)-L-prolinamide]
[1]; [3]
  EC50: 0.003 to 0.1 µM
[2]
  IC50: > 0.2 µM

## C=C[C@@H]1C[C@]1(NC(=O)[C@@H]1C[C@@H](Oc2ncc(OC)c3ccc(Cl)cc23)CN1C(=O)[C@@H](Nc1cccc(S(=O)(=O)NC(C)(C)C)c1)C(C)(C)C)C(=O)NS(=O)(=O)C1CC1 [206 first isomer, N-(3-(tert-butylsulfamoyl)phenyl)-3-methyl-L-valyl-(4R)-4-((7-chloro-4-methoxy-1-isoquinolinyl)oxy)-N-((1R,2S)-1-((cyclopropylsulfonyl)carbamoyl)-2-vinylcyclopropyl)-L-prolinamide]
[1]; [3]
  EC50: 0.003 to 0.1 µM
[2]
  IC50: 0.0006 to 0.02 µM

## C=C[C@@H]1C[C@]1(NC(=O)[C@@H]1C[C@@H](Oc2ncc(OC)c3ccc(Cl)cc23)CN1C(=O)[C@H](Nc1cccc(S(=O)(=O)NC(C)(C)C)c1)C(C)(C)C)C(=O)NS(=O)(=O)C1CC1 [206 second isomer, N-(3-(tert-butylsulfamoyl)phenyl)-3-methyl-D-valyl-(4R)-4-((7-chloro-4-methoxy-1-isoquinolinyl)oxy)-N-((1R,2S)-1-((cyclopropylsulfonyl)carbamoyl)-2-vinylcyclopropyl)-L-prolinamide]
[1]; [3]
  EC50: > 1 µM
[2]
  IC50: > 0.2 µM

## C=C[C@@H]1C[C@]1(NC(=O)[C@@H]1C[C@@H](Oc2ncc(OC)c3ccc(Cl)cc23)CN1C(=O)[C@@H](Nc1cccc(S(N)(=O)=O)c1)C(C)(C)C)C(=O)NS(=O)(=O)C1CC1 [207 first isomer, 3-methyl-N-(3-sulfamoylphenyl)-L-valyl-(4R)-4-((7-chloro-4-methoxy-1-isoquinolinyl)oxy)-N-((1R,2S)-1-((cyclopropylsulfonyl)carbamoyl)-2-vinylcyclopropyl)-L-prolinamide]
[1]; [3]
  EC50: 0.003 to 0.1 µM
[2]
  IC50: 0.0006 to 0.02 µM

## C=C[C@@H]1C[C@]1(NC(=O)[C@@H]1C[C@@H](Oc2ncc(OC)c3ccc(Cl)cc23)CN1C(=O)[C@H](Nc1cccc(S(N)(=O)=O)c1)C(C)(C)C)C(=O)NS(=O)(=O)C1CC1 [207 second isomer, 3-methyl-N-(3-sulfamoylphenyl)-D-valyl-(4R)-4-((7-chloro-4-methoxy-1-isoquinolinyl)oxy)-N-((1R,2S)-1-((cyclopropylsulfonyl)carbamoyl)-2-vinylcyclopropyl)-L-prolinamide]
[1]; [3]
  EC50: > 1 µM
[2]
  IC50: > 0.2 µM

## C=C[C@@H]1C[C@]1(NC(=O)[C@@H]1C[C@@H](Oc2ncc(OC)c3ccc(Cl)cc23)CN1C(=O)[C@@H](Nc1cccc(F)c1F)C(C)(C)C)C(=O)NS(=O)(=O)C1CC1 [208 first isomer, N-(2,3-difluorophenyl)-3-methyl-L-valyl-(4R)-4-((7-chloro-4-methoxy-1-isoquinolinyl)oxy)-N-((1R,2S)-1-((cyclopropylsulfonyl)carbamoyl)-2-vinylcyclopropyl)-L-prolinamide]
[1]; [3]
  EC50: 0.003 to 0.1 µM
[2]
  IC50: 0.0006 to 0.02 µM

## C=C[C@@H]1C[C@]1(NC(=O)[C@@H]1C[C@@H](Oc2ncc(OC)c3ccc(Cl)cc23)CN1C(=O)[C@@H](Nc1ccc(C(=O)O)cc1)C(C)(C)C)C(=O)NS(=O)(=O)C1CC1 [209 first isomer, N-(4-carboxyphenyl)-3-methyl-L-valyl-(4R)-4-((7-chloro-4-methoxy-1-isoquinolinyl)oxy)-N-((1R,2S)-1-((cyclopropylsulfonyl)carbamoyl)-2-vinylcyclopropyl)-L-prolinamide]
[1]; [3]
  EC50: 0.003 to 0.1 µM
[2]
  IC50: 0.0006 to 0.02 µM

## C=C[C@@H]1C[C@]1(NC(=O)[C@@H]1C[C@@H](Oc2ncc(OC)c3ccc(Cl)cc23)CN1C(=O)[C@H](Nc1ccc(C(=O)O)cc1)C(C)(C)C)C(=O)NS(=O)(=O)C1CC1 [209 second isomer, N-(4-carboxyphenyl)-3-methyl-D-valyl-(4R)-4-((7-chloro-4-methoxy-1-isoquinolinyl)oxy)-N-((1R,2S)-1-((cyclopropylsulfonyl)carbamoyl)-2-vinylcyclopropyl)-L-prolinamide]
[1]; [3]
  EC50: > 1 µM
[2]
  IC50: > 0.2 µM
